Results on 15 compounds are retold here after patent US20210038607A1, “OXADIAZOLYLTHIOPHENE DERIVATIVES USEFUL AS HISTONE DEACETYLASE INHIBITORS” (Karus Therapeutics Limited, priority 2018, published 2021).

The target of one assay is T1, Human HDAC7 (Homo sapiens, UniProt Q8WUI4).
T1 construct: (a.a. 518-end) with N-terminal GST tag; GST (N); host or cells: baculovirus expression system
T1 sequence (Q8WUI4 518-952 limits assumed): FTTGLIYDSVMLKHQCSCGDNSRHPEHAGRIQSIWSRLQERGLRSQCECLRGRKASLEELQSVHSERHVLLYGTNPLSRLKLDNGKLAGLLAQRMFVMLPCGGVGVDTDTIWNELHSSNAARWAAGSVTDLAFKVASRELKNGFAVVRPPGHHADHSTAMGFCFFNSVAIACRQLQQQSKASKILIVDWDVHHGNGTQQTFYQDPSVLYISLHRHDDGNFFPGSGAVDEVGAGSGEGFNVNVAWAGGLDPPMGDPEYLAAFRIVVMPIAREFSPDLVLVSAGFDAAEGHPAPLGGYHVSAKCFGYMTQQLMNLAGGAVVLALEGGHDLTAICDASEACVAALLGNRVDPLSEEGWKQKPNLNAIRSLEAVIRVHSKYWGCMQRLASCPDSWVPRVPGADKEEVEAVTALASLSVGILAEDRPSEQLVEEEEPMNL
Description: HDAC7 biochemical assay, class IIa-specific substrate. Particulars: read-out: HDAC Isoform IC50 (nM) 7. In outline: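 Two-step fluorogenic readout: class IIa-selective trifluoroacetyl-lysine AMC substrate (50 μM) deacetylated by N-terminal GST-HDAC7 fragment (0.001 ng/ul), then digested by developer, Ex/Em 360/460. Reaction: 30 min, room temperature, Tris-HCl pH 8.0, NaCl/KCl/MgCl2, 1 mg/mL BSA, 1% DMSO.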

A further assay deals with T2, Human HDAC5 (Homo sapiens, UniProt Q9UQL6).
T2 construct: full length with C-terminal His tag, MW=51.1 kDa; His (C); host or cells: baculovirus expression system
T2 sequence (Q9UQL6 656-1122 limits assumed): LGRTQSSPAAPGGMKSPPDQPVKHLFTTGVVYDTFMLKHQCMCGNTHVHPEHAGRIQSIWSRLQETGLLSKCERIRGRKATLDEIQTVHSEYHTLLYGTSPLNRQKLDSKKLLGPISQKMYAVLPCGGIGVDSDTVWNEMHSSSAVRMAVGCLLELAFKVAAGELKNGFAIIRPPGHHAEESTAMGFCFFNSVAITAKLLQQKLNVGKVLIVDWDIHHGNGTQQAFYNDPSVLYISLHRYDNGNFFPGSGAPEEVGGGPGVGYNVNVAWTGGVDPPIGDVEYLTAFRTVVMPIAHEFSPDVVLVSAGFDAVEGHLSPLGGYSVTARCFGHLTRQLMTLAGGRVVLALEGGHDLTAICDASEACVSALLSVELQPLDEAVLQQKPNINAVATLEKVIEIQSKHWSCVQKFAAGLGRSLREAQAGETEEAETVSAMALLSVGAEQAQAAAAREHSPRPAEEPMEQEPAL
Description: HDAC5 biochemical assay, class IIa-specific substrate. Particulars: read-out: HDAC Isoform IC50 (nM) 5. The method in brief:
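Two-step fluorogenic read-out: deacetylated trifluoroacetyl-lysine AMC substrate (50 μM) digested by developer, measured at Ex/Em 360/460. Deacetylation step: 0.05 ng/ul His-tagged full-length baculoviral enzyme with compound, 30 min, room temperature, pH 8.0 Tris with 1 mg/mL BSA and 1% DMSO.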

The next assay concerns the target T3, Recombinant human HDAC6 (Homo sapiens, UniProt Q9UBN7).
T3 construct: full length, MW=159 kDa; GST (N); host or cells: Sf9 insect cells (baculovirus)
T3 sequence (Q9UBN7 1-1215): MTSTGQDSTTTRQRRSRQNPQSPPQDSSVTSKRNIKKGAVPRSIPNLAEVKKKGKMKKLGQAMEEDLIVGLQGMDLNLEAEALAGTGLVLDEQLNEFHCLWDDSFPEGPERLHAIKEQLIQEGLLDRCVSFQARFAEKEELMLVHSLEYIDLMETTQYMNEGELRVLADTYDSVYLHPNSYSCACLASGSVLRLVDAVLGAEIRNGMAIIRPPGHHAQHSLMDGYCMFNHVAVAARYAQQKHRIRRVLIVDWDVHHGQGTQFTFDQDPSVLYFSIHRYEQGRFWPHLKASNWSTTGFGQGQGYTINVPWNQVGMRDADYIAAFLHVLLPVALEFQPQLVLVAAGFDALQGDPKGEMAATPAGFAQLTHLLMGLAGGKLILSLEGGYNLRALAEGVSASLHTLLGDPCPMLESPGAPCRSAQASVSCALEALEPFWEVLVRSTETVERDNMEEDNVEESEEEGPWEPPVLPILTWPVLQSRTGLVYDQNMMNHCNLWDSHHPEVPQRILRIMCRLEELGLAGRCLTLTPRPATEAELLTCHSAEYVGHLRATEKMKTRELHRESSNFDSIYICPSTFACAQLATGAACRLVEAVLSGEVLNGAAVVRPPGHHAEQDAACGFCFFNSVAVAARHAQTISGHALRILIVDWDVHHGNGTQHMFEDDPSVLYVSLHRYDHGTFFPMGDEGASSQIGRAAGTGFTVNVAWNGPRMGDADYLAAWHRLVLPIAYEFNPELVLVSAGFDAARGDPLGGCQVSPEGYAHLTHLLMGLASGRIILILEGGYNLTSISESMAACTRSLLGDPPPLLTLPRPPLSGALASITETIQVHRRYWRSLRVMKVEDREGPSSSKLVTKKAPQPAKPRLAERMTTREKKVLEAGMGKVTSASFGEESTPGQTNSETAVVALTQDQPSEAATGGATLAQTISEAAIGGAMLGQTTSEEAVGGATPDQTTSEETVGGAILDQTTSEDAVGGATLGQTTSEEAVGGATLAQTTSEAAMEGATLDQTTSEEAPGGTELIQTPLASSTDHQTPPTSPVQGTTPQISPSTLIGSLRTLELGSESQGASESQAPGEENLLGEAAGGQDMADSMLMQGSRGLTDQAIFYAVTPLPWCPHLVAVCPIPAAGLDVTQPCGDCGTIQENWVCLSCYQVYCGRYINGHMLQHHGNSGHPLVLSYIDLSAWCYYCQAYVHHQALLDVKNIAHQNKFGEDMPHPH
Kind of assay: HDAC6 biochemical assay, AMC-labeled peptide substrate. The settings on record: HDAC6; read-out: HDAC Isoform IC50 (nM) 6. In outline: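 Two-step fluorogenic read-out: enzyme deacetylates 50 μM RHKK(Ac)AMC for 1 h at 30° C in pH 8.0 Tris buffer with BSA and 1% DMSO, then developer cleavage gives signal at Ex 360/Em 460. Enzyme: 0.3 ng/ul recombinant full-length human HDAC6, GST-tagged, Sf9-expressed.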

`O=C(c1cnnc(N(Cc2ccc(-c3noc(C(F)(F)F)n3)s2)c2cnccn2)c1)N1CC2CCC(C1)O2` [Example GA, 5-{8-Oxa-3-azabicyclo[3.2.1]octane-3-carbonyl}-N-(pyrazin-2-yl)-N-({5-[5-(trifluoromethyl)-1,2,4-oxadiazol-3-yl]thiophen-2-yl}methyl)pyridazin-3-amine]: the half-maximal inhibitory concentration (IC50) was at most 10000 nM on Human HDAC7, at most 1000 nM on Human HDAC5 and at most 500 nM on Recombinant human HDAC6.
Taken in the same sequence, the figures for `O=C(c1cnnc(N(Cc2ccc(-c3noc(C(F)(F)F)n3)s2)c2cnccn2)c1)N1C2CCC1COC2` [Example GB, 5-{3-Oxa-8-azabicyclo[3.2.1]octane-8-carbonyl}-N-(pyrazin-2-yl)-N-({5-[5-(trifluoromethyl)-1,2,4-oxadiazol-3-yl]thiophen-2-yl}methyl)pyridazin-3-amine] were at most 10000 nM, at most 1000 nM and at most 500 nM.
The matching figures for `CC(C)OC1CN(C(=O)c2cnnc(N(Cc3ccc(-c4noc(C(F)(F)F)n4)s3)c3cnccn3)c2)C1` [Example GC, 5-[3-(Propan-2-yloxy)azetidine-1-carbonyl]-N-(pyrazin-2-yl)-N-({5-[5-(trifluoromethyl)-1,2,4-oxadiazol-3-yl]thiophen-2-yl}methyl)pyridazin-3-amine]: at most 500 nM, at most 500 nM and at most 500 nM.
The matching figures for `O=C(c1cnnc(N(Cc2ccc(-c3noc(C(F)(F)F)n3)s2)c2cnccn2)c1)N1CC(O)(C(F)(F)F)C1` [Example GD, 1-{6-[(Pyrazin-2-yl)({5-[5-(trifluoromethyl)-1,2,4-oxadiazol-3-yl]thiophen-2-yl}methyl)amino]pyridazine-4-carbonyl}-3-(trifluoromethyl)azetidin-3-ol]: at most 1000 nM, at most 1000 nM and at most 500 nM.
`CN(C(=O)c1cnnc(N(Cc2ccc(-c3noc(C(F)(F)F)n3)s2)c2cnccn2)c1)S(C)(=O)=O` [Example GE, N-Methanesulfonyl-N-methyl-6-[(pyrazin-2-yl)({5-[5-(trifluoromethyl)-1,2,4-oxadiazol-3-yl]thiophen-2-yl}methyl)amino]pyridazine-4-carboxamide]: the values for the IC50 on Human HDAC7, on Human HDAC5 and on Recombinant human HDAC6 were at most 1000 nM, at most 1000 nM and at most 500 nM, respectively.
As for `O=C(c1cnnc(N(Cc2ccc(-c3noc(C(F)(F)F)n3)s2)c2cnccn2)c1)N1CCC12COC2` [Example GF, 5-{6-Oxa-1-azaspiro[3.3]heptane-1-carbonyl}-N-(pyrazin-2-yl)-N-({5-[5-(trifluoromethyl)-1,2,4-oxadiazol-3-yl]thiophen-2-yl}methyl)pyridazin-3-amine], the results for the half-maximal inhibitory concentration (IC50) on Human HDAC7, at Human HDAC5 and at Recombinant human HDAC6 were at most 10000 nM, at most 500 nM and at most 500 nM, respectively.
Consider `FC(F)(F)c1nc(-c2ccc(CN(c3cnccn3)c3cc(CN4CCCC4)ccn3)s2)no1` [Example GG, N-{4-[(Pyrrolidin-1-yl)methyl]pyridin-2-yl}-N-({5-[5-(trifluoromethyl)-1,2,4-oxadiazol-3-yl]thiophen-2-yl}methyl)pyrazin-2-amine], for which the concentration for half-maximal inhibition (IC50) at Human HDAC7, on Human HDAC5 and at Recombinant human HDAC6 was at most 1000 nM throughout.
For `COC1CN(Cc2ccnc(N(Cc3ccc(-c4noc(C(F)(F)F)n4)s3)c3cnccn3)c2)C1` [Example GH, N-{4-[(3-Methoxyazetidin-1-yl)methyl]pyridin-2-yl}-N-({5-[5-(trifluoromethyl)-1,2,4-oxadiazol-3-yl]thiophen-2-yl}methyl)pyrazin-2-amine], the IC50 on Human HDAC7 was at most 10000 nM; on Human HDAC5 it was at most 1000 nM; on Recombinant human HDAC6, at most 500 nM.
The matching figures for `FC(F)(F)c1nc(-c2ccc(CN(c3cnccn3)c3cc(CN4CCOCC4)ccn3)s2)no1` [Example GI, N-{4-[(Morpholin-4-yl)methyl]pyridin-2-yl}-N-({5-[5-(trifluoromethyl)-1,2,4-oxadiazol-3-yl]thiophen-2-yl}methyl)pyrazin-2-amine]: at most 10000 nM, at most 10000 nM and at most 1000 nM.
The matching figures for `O=C(c1cnnc(N(Cc2ccc(-c3noc(C(F)(F)F)n3)s2)c2cnccn2)c1)N1CC(C(F)(F)F)C1` [Example GJ, N-(Pyrazin-2-yl)-N-({5-[5-(trifluoromethyl)-1,2,4-oxadiazol-3-yl]thiophen-2-yl}methyl)-5-[3-(trifluoromethyl)azetidine-1-carbonyl]pyridazin-3-amine]: at most 1000 nM, at most 10000 nM and at most 500 nM.
Taken in the same sequence, the figures for `O=C(c1cnnc(N(Cc2ccc(-c3noc(C(F)(F)F)n3)s2)c2cnccn2)c1)N1CC(C(F)F)C1` [Example GK, 5-[3-(Difluoromethyl)azetidine-1-carbonyl]-N-(pyrazin-2-yl)-N-({5-[5-(trifluoromethyl)-1,2,4-oxadiazol-3-yl]thiophen-2-yl}methyl)pyridazin-3-amine] were at most 500 nM, at most 1000 nM and at most 500 nM.
In the case of `COC1(C(F)(F)F)CN(C(=O)c2cnnc(N(Cc3ccc(-c4noc(C(F)(F)F)n4)s3)c3cnccn3)c2)C1` [Example GL, 5-[3-Methoxy-3-(trifluoromethyl)azetidine-1-carbonyl]-N-(pyrazin-2-yl)-N-({5-[5-(trifluoromethyl)-1,2,4-oxadiazol-3-yl]thiophen-2-yl}methyl)pyridazin-3-amine], the IC50 is at most 10000 nM at Human HDAC7, at most 1000 nM on Human HDAC5 and at most 500 nM on Recombinant human HDAC6.
For `FC(F)(F)c1nc(-c2ccc(CN(c3cnccn3)c3cc(-c4ccccn4)cnn3)s2)no1` [Example GM, N-(Pyrazin-2-yl)-5-(pyridin-2-yl)-N-({5-[5-(trifluoromethyl)-1,2,4-oxadiazol-3-yl]thiophen-2-yl}methyl)pyridazin-3-amine], the 50% inhibitory concentration (IC50) on Human HDAC7 was at most 500 nM; on Human HDAC5, at most 10000 nM; on Recombinant human HDAC6, at most 500 nM.
On to `Cc1cnnc(N(Cc2ccc(-c3noc(C(F)(F)F)n3)s2)c2cnccn2)c1` [Example GN, 5-Methyl-N-(pyrazin-2-yl)-N-({5-[5-(trifluoromethyl)-1,2,4-oxadiazol-3-yl]thiophen-2-yl}methyl)pyridazin-3-amine], for which the IC50 at Human HDAC7 was at most 1000 nM; at Human HDAC5 it was at most 1000 nM; at Recombinant human HDAC6 it was at most 500 nM.
Turning to `NC(=O)c1nccnc1N(Cc1ccc(-c2noc(C(F)(F)F)n2)s1)c1cnccn1` [Example GO, 3-[(Pyrazin-2-yl)({5-[5-(trifluoromethyl)-1,2,4-oxadiazol-3-yl]thiophen-2-yl}methyl)amino]pyrazine-2-carboxamide], the IC50 on Human HDAC7 was at most 10000 nM; at Human HDAC5, at most 10000 nM; at Recombinant human HDAC6 it was at most 1000 nM.
